Laboratory results reported in patent US10669334B2, “Treatment for Dupuytren's disease” (Oxford University Innovation Limited, priority 2010, dated 2020).

What was measured:
[1] = test system: palmar fibroblasts; test: Culture force monitor: isometric force contraction of collagen gels seeded with palmar fibroblasts; format: cell-based, human; details: 24 h; for isometric force contraction of palmar fibroblasts: 1 ng/ml, versus PS alone, FIG. 12 / FIG. 22
Text: The culture force monitor (CFM) utilised and culture conditions are shown in FIGS. 3A to 3E: (A) Rectangular seeded collagen gels were cast and floated in medium, tethered between two flotation bars one of which is held stationary whilst the other is attached to a force transducer. (B) Cell-generated tensional forces in the collagen gel are detected by the force transducer, and live data are logged every 15 seconds providing a continuous output of force (dynes, […]) generated. (C) After 24 hour contraction, gels are harvested and processed for α-SMA mRNA, protein and immunofluorescence. (D) Cells were routinely seeded in gels with a high aspect-ratio collagen lattice, although low aspect-ratio lattices (E) were also used in experiments to compare effects of less strain on cell contractility. […]
Collagen gels seeded with palmar fibroblasts were cultured for 24 h with supernatants from AGE-(100 μg/ml) stimulated monocytes (M) in the absence or presence of anti TNF-α (10 μg/ml) and isometric force contraction quantified. Experiments were performed in duplicate. […]

[2] = test system: human monocytes; test: TNF-α production by human monocytes (ELISA); format: cell-based
Experimental: LPS, a pathogen associated molecular pattern (PAMP) is shown as positive control.
The known receptors for S100A8 are the receptor for advanced glycation end products (RAGE) and the Toll-like receptors 2 and 4. Human monocytes at 1×10^5/ml were incubated in 10% FCS with human S100 A8 at 0.5 with the addition of either antibody to TLR4, TLR2 or isotype controls (not shown), or soluble RAGE (sRAGE)) over 14 hours. TNF-α levels were determined by ELISA.
It is more difficult to show in vitro that HMGB1 also acts on monocytes to lead to pro-inflammatory cytokine release. […] Our experiment, the results of which are shown in FIG. 18, involved human monocytes at 1×10^5/ml incubated in 10% FCS with HMGB1 or LPS alone or together at concentrations shown over 14 hours. TNF-α levels were determined by ELISA.

[3] = test system: non-palmar dermal fibroblasts; test: Culture force monitor: contraction rate of non-palmar dermal fibroblasts; format: cell-based, human; details: 1 ng/ml; 24 h; one patient; FIG. 22
Text: The culture force monitor (CFM) utilised and culture conditions are shown in FIGS. 3A to 3E: (A) Rectangular seeded collagen gels were cast and floated in medium, tethered between two flotation bars one of which is held stationary whilst the other is attached to a force transducer. (B) Cell-generated tensional forces in the collagen gel are detected by the force transducer, and live data are logged every 15 seconds providing a continuous output of force (dynes, […]) generated. (C) After 24 hour contraction, gels are harvested and processed for α-SMA mRNA, protein and immunofluorescence. (D) Cells were routinely seeded in gels with a high aspect-ratio collagen lattice, although low aspect-ratio lattices (E) were also used in experiments to compare effects of less strain on cell contractility.
We then compared the effect of TNF-α on the rate of contraction on palmar skin and non-palmar skin from a Dupuytren's patient. Collagen gels seeded with palmar fibroblasts were cultured for 24 h in the absence (PS or NPS alone) or presence of TNF-α (1 ng/ml). Data are shown as +/−SD from triplicate experiments using cells from 3 patients for palmar skin and one patient non-palmar skin (**p=0.0012, ns=not significant). […]

[4] = cited from earlier work
[5] = test system: murine bone marrow cells; test: TNF-α production by murine bone marrow cells (wild type, TLR4-/-, MyD88-/-) by ELISA; format: cell-based; details: TLR4-/- and MyD88-/- mice, FIG. 17
Experimental: In FIG. 17, TNF-α produced by murine bone marrow cells of wild type, TLR4^−/− and MyD88^−/− mice on exposure to murine S100A8 were measured by ELISA.

[6] = exposure to alarmin over tested range, FIG. 15
[7] = phase III clinical trial, Hurst et al 2009

AGEs
palmar fibroblast contraction with supernatants from AGE-stimulated monocytes ([1]; AGE 100 μg/ml stimulated monocyte supernatant, absence or presence of anti TNF-α 10 μg/ml, FIG. 20): stimulated palmar fibroblast contraction in a TNF-α dependent manner
contractility of palmar dermal fibroblasts ([1]; AGEs-BSA 150 μg/ml, FIG. 14): not affected

S100A8: Alarmin (DAMP) protein, human
TNF-α production by human monocytes [2, 6]: produced TNF-α in a dose dependent manner
receptor mediating TNF-α production by human monocytes ([2]; human S100 A8 at 0.5 with antibody to TLR4, TLR2 or soluble RAGE, 14 hours, FIG. 16): TLR-4 and not RAGE or TLR-2
relative activity in TNF-α production by human monocytes ([2]; within the tested range, FIG. 15): more active than S100A9 and S100A12

TGF-β1: cytokine that leads to development of the myofibroblast phenotype
palmar fibroblast contractility ([1]; 10 ng/ml, compared to untreated palmar fibroblasts, p=0.0001, FIG. 12): significant increased palmar fibroblast contractility
contractility of human palmar fibroblasts in collagen lattice under isometric conditions ([1]; TGF-β1, cells from 3 patients, FIG. 21): enhanced contractility

TNF-α
contraction rate of non-palmar dermal fibroblasts [3]: no change, or a slight reduction, in contraction rate
isometric force contraction of palmar fibroblasts [1]: significantly enhanced contraction

bacterial collagenase: bacterial (Clostridial) collagenase for enzymatic fasciotomy, FDA approved as Xiaflex
recurrence rates in patients with PIPJ contractures ([4]; 2 years follow-up, Badalamente et al 2007): 57%
MCPJ contractures effectively treated (to within 5° of full extension) [4, 7]: 77%
PIPJ contractures effectively treated (to within 5° of full extension) [4, 7]: 40%

B1: S100A9: Alarmin (DAMP) protein (protein, UniProt P06702 1-114, looked up)
Protein S100-A9: MTCKMSQLERNIETIINTFHQYSVKLGHPDTLNQGEFKELVRKDLQNFLKKENKNEKVIEHIMEDLDTNADKQLSFEEFIMLMARLTWASHEKMHEGDEGPGHHHKPGLGEGTP
TNF-α production by human monocytes [2, 6]: to some extent

B2: murine S100A8: murine Alarmin S100A8 (protein, UniProt P27005 2-89, looked up)
Protein S100-A8: PSELEKALSNLIDVYHNYSNIQGNHHALYKNDFKKMVTTECPQFVQNINIENLFRELDINSDNAINFEEFLAMVIKVGVASHKDSHKE
receptor/signalling dependence of TNF-α production [5]: predominantly binds to TLR-4 and that the intracellular signalling leading to TNF-α production by monocytes is entirely dependent on adaptor protein MyD88

B3: HMGB1: high mobility group box protein, an Alarmin (DAMP) (protein, UniProt P09429 1-215, looked up)
High mobility group protein B1: MGKGDPKKPRGKMSSYAFFVQTCREEHKKKHPDASVNFSEFSKKCSERWKTMSAKEKGKFEDMAKADKARYEREMKTYIPPKGETKKKFKDPNAPKRPPSAFFLFCSEYRPKIKGEHPGLSIGDVAKKLGEMWNNTAADDKQPYEKKAAKLKEKYEKDIAAYRAKGKPDAAKKGVVKAEKSKKKKEEEEDEEDEEDEEEEEDEEDEDEEEDDDDE
TNF-α production by human monocytes ([2]; HMGB1 alone, 14 hours, FIG. 18): does not stimulate TNF-α production by monocytes
TNF-α production by human monocytes ([2]; HMGB1 together with LPS, 14 hours, FIG. 18): active in combination with LPS
isometric force contraction of palmar fibroblasts [1]: trend towards increased contraction resulting from HMGB1, this was not statistically significant
